Values quoted from earlier work, collected in patent US10927398B2, “Compositions for CYP450 phenotyping using saliva samples” (Concordia University, Inc., priority 2015, dated 2021).
Where two headings read alike, the source gives them in different places.

Key:
[1] = cited from earlier work
[2] = system: plasma protein; details: cited from earlier work
[3] = cited from earlier work; remark: listed apart in the source
[4] = Table of Exemplary Drugs, CYP2D6
[5] = Table of Exemplary Drugs, CYP1A2
[6] = Table of Exemplary Drugs, CYP3A4
[7] = Table of Exemplary Drugs, CYP2C19
[8] = Table of Exemplary Drugs, CYP2C9

CCC1(c2ccccc2)C(=O)NC(=O)N(C)C1=O (stereo not drawn) [Methylphenobarbital]
ORAL BIOAVAILABILITY ([1]; in vivo, po): 50% | PLASMA PROTEIN BINDING ([2]; plasma): 70-76% ^ | HALF-LIFE ([3]; in vivo): 31 to 67 h

COCCc1ccc(OCC(O)CNC(C)C)cc1 (stereo not drawn) [Metoprolol]
ORAL BIOAVAILABILITY [1, 4]: 77% | PLASMA PROTEIN BINDING [2, 4]: 12% | HALF-LIFE [3, 4]: 3 to 7 h

Cc1cccc(C)c1OCC(C)N (stereo not drawn) [Mexiletine]
ORAL BIOAVAILABILITY [1, 5]: 90% | ORAL BIOAVAILABILITY [1, 4]: 80-90% | PLASMA PROTEIN BINDING [2, 5]: 50-60% ^ | PLASMA PROTEIN BINDING [2, 4]: 50-70% ^ | HALF-LIFE [3, 5]: 10 to 12 h | HALF-LIFE [3, 4]: 6 to 17 h

CN1CCN2c3ccccc3Cc3ccccc3C2C1 (stereo not drawn) [Mianserin]
ORAL BIOAVAILABILITY [1, 4]: 20-30% | PLASMA PROTEIN BINDING [2, 4]: 90% | HALF-LIFE [3, 4]: 1.4 h

Cc1ncc2n1-c1ccc(Cl)cc1C(c1ccccc1F)=NC2 [Midazolam (Versed), Midazolam]
ORAL BIOAVAILABILITY ([1]; in vivo, po): PO: 36% | PLASMA PROTEIN BINDING [2, 6]: 97% | HALF-LIFE ([3]; in vivo): 3 to 6 h

CC#C[C@]1(O)CC[C@H]2[C@@H]3CCC4=CC(=O)CCC4=C3[C@@H](c3ccc(N(C)C)cc3)C[C@@]21C [Mifepristone (Mifeprex), Mifepristone]
ORAL BIOAVAILABILITY [1, 6]: 69% | PLASMA PROTEIN BINDING [2, 6]: 99.2%^ | HALF-LIFE [3, 6]: 20 to 85 h

O=C(NCCN1CCOCC1)c1ccc(Cl)cc1 [Moclobemide]
ORAL BIOAVAILABILITY [1, 7]: 55-95% | PLASMA PROTEIN BINDING [2, 7]: 50% | HALF-LIFE [3, 7]: 2 h

CC(C)[C@H]1CC[C@H](C(=O)N[C@H](Cc2ccccc2)C(=O)O)CC1 [Nateglinide]
ORAL BIOAVAILABILITY [1, 8]: 73% | PLASMA PROTEIN BINDING [2, 8]: 98% | HALF-LIFE [3, 8]: 1.5 h

OC(CNCC(O)C1CCc2cc(F)ccc2O1)C1CCc2cc(F)ccc2O1 (stereo not drawn) [Nebivolol]
ORAL BIOAVAILABILITY [1, 4]: 12-96% | PLASMA PROTEIN BINDING [2, 4]: 98% | HALF-LIFE [3, 4]: 12 to 19 h

CCc1nn(CCCN2CCN(c3cccc(Cl)c3)CC2)c(=O)n1CCOc1ccccc1 [Nefazodone]
ORAL BIOAVAILABILITY [1, 6]: 20% | PLASMA PROTEIN BINDING [2, 6]: >99% | HALF-LIFE [3, 6]: 2 to 4 h

Cc1ccnc2c1NC(=O)c1cccnc1N2C1CC1 [Nevirapine (Viramune), Nevirapine]
ORAL BIOAVAILABILITY [1, 6]: 80-94% | PLASMA PROTEIN BINDING [2, 6]: 60% | HALF-LIFE [3, 6]: 25 to 45 h

COC(=O)C1=C(C)NC(C)=C(C(=O)OCC(C)C)C1c1ccccc1[N+](=O)[O-] (stereo not drawn) [Nisoldipine (Sular), Nisoldipine]
ORAL BIOAVAILABILITY [1, 6]: 5% | PLASMA PROTEIN BINDING [2, 6]: 99% | HALF-LIFE [3, 6]: 13.7 h

CCOC(=O)C1=C(C)NC(C)=C(C(=O)OC)C1c1cccc([N+](=O)[O-])c1 (stereo not drawn) [Nitrendipine (Baypress), Nitrendipine]
ORAL BIOAVAILABILITY [1, 6]: 23% | PLASMA PROTEIN BINDING [2, 6]: 97-99% ^ | HALF-LIFE [3, 6]: 2 to 24 h

Cc1nccn1CC1CCc2c(c3ccccc3n2C)C1=O (stereo not drawn) [Ondansetron]
ORAL BIOAVAILABILITY [1, 5]: 100% | ORAL BIOAVAILABILITY [1, 4]: 56% | PLASMA PROTEIN BINDING [2, 5]: 70-76% ^ | PLASMA PROTEIN BINDING [2, 4]: 70-76% ^ | HALF-LIFE [3, 5]: 3 to 6 h | HALF-LIFE [3, 4]: 3 to 6.2 h

COc1ccc2c3c1O[C@H]1C(=O)CC[C@@]4(O)[C@@H](C2)N(C)CC[C@]314 [Oxycodone]
ORAL BIOAVAILABILITY [1, 4]: 60-87% | ORAL BIOAVAILABILITY [1, 6]: 60-87% | PLASMA PROTEIN BINDING [2, 4]: 45% | PLASMA PROTEIN BINDING [2, 6]: 45% | HALF-LIFE [3, 4]: 5.6 h | HALF-LIFE [3, 6]: 5.6 h

CC(=O)O[C@H]1C(=O)[C@@]2(C)[C@H]([C@H](OC(=O)c3ccccc3)[C@]3(O)C[C@H](OC(=O)[C@H](O)[C@@H](NC(=O)c4ccccc4)c4ccccc4)C(C)=C1C3(C)C)[C@]1(OC(C)=O)CO[C@@H]1C[C@@H]2O [Paclitaxel (Taxol), Paclitaxel]
ORAL BIOAVAILABILITY [1, 6]: 6.50% | PLASMA PROTEIN BINDING [2, 6]: 89-98% ^ | HALF-LIFE [3, 6]: 13.1 to 52.7 h

COc1ccnc(C[S+]([O-])c2nc3ccc(OC(F)F)cc3[nH]2)c1OC (stereo not drawn) [Pantoprazole]
ORAL BIOAVAILABILITY [1, 7]: 77% | PLASMA PROTEIN BINDING [2, 7]: 98% | HALF-LIFE [3, 7]: 1 h

CC(=O)Nc1ccc(O)cc1 [Paracetamol]
ORAL BIOAVAILABILITY [1, 5]: 85-98% | PLASMA PROTEIN BINDING [2, 5]: 10-25% ^ | HALF-LIFE [3, 5]: 1 to 4 h

[H]/N=C(/N)N/C(=N/[H])NCCc1ccccc1 [Phenformin]
ORAL BIOAVAILABILITY [1, 4]: 40-60% | PLASMA PROTEIN BINDING [2, 4]: 12-20% ^ | HALF-LIFE [3, 4]: 4 to 13 h

CCC1(c2ccccc2)C(=O)NC(=O)NC1=O [Phenobarbital]
ORAL BIOAVAILABILITY ([1]; in vivo, po): 80-100% | PLASMA PROTEIN BINDING ([2]; plasma): 20-60% ^ | HALF-LIFE ([3]; in vivo): 36 to 120 h

O=C1NC(=O)C(c2ccccc2)(c2ccccc2)N1 [Phenytoin]
ORAL BIOAVAILABILITY [1, 8]: 20-90% | ORAL BIOAVAILABILITY [1, 7]: 20-90% | PLASMA PROTEIN BINDING [2, 8]: 88-93% ^ | PLASMA PROTEIN BINDING [2, 7]: 88-93% ^ | HALF-LIFE [3, 8]: 14 to 22 h | HALF-LIFE [3, 7]: 14 to 22 h

CCc1ccc(CCOc2ccc(CC3SC(=O)NC3=O)cc2)nc1 (stereo not drawn) [Pioglitazone]
ORAL BIOAVAILABILITY [1, 6]: 50% | PLASMA PROTEIN BINDING [2, 6]: >99% | HALF-LIFE [3, 6]: 3 to 7 h

O=C(C1CCCCC1)N1CC(=O)N2CCc3ccccc3C2C1 (stereo not drawn) [Praziquantel (Biltricide), Praziquantel]
ORAL BIOAVAILABILITY [1, 6]: 80% | PLASMA PROTEIN BINDING [2, 6]: 80% | HALF-LIFE [3, 6]: 0.8 to 3 h

CCC1(c2ccccc2)C(=O)NCNC1=O [Primidone]
ORAL BIOAVAILABILITY [1, 7]: 90-100% | PLASMA PROTEIN BINDING [2, 7]: 20-30% ^ | HALF-LIFE [3, 7]: 3.3 to 7 h

CC(=O)[C@H]1CC[C@H]2[C@@H]3CCC4=CC(=O)CC[C@]4(C)[C@H]3CC[C@]12C [Progesterone]
ORAL BIOAVAILABILITY [1, 7]: 10-15% | PLASMA PROTEIN BINDING [2, 7]: 95-99% ^ | HALF-LIFE ([3]; cell marked PV, Table of Exemplary Drugs, CYP2C19): PV: 5-20 min

CC(CN1c2ccccc2Sc2ccccc21)N(C)C (stereo not drawn) [Promethazine]
ORAL BIOAVAILABILITY [1, 4]: 88% | PLASMA PROTEIN BINDING [2, 4]: 93% | HALF-LIFE [3, 4]: 16 to 19 h

CCC(=O)O[C@](Cc1ccccc1)(c1ccccc1)[C@H](C)CN(C)C [Propoxyphene (Darvon), Propoxyphene]
ORAL BIOAVAILABILITY [1, 6]: 40% | PLASMA PROTEIN BINDING [2, 6]: 78% | HALF-LIFE [3, 6]: 6 to 12 h

Fc1ccccc1C1=NCC(=S)N(CC(F)(F)F)c2ccc(Cl)cc21 [Quazepam (Doral), Quazepam]
ORAL BIOAVAILABILITY [1, 6]: 29-35% | PLASMA PROTEIN BINDING [2, 6]: >95% | HALF-LIFE [3, 6]: 25 to 41 h

COc1ccccc1OCC(O)CN1CCN(CC(=O)Nc2c(C)cccc2C)CC1 (stereo not drawn) [Ranulazine (Ranexa), Ranulazine]
ORAL BIOAVAILABILITY [1, 6]: 55% | PLASMA PROTEIN BINDING [2, 6]: 62% | HALF-LIFE [3, 6]: 7 to 8.9 h

CCN1CCC[C@H]1CNC(=O)c1c(OC)ccc(Br)c1OC [Remoxipride]
ORAL BIOAVAILABILITY [1, 4]: 96% | PLASMA PROTEIN BINDING [2, 4]: 5-6% | HALF-LIFE [3, 4]: 3 to 6 h

CCOc1cc(CC(=O)N[C@@H](CC(C)C)c2ccccc2N2CCCCC2)ccc1C(=O)O [Repaglinide (Prandin), Repaglinide]
ORAL BIOAVAILABILITY [1, 6]: 56% | PLASMA PROTEIN BINDING [2, 6]: >98% | HALF-LIFE [3, 6]: 1 h

CCCN1CCCC[C@H]1C(=O)Nc1c(C)cccc1C [Ropivacaine]
ORAL BIOAVAILABILITY ([1]; cell marked IV, Table of Exemplary Drugs, CYP1A2): 87-98% - IV | PLASMA PROTEIN BINDING [2, 5]: 94% | HALF-LIFE [3, 5]: 5 to 7 h

CC(C)CC(N(C)C)C1(c2ccc(Cl)cc2)CCC1 (stereo not drawn) [Sibutramine (Meridia), Sibutramine]
ORAL BIOAVAILABILITY [1, 6]: 77% | PLASMA PROTEIN BINDING [2, 6]: 97% | HALF-LIFE [3, 6]: 1.1 h

CO[C@H]1C[C@@H]2CC[C@@H](C)[C@@](O)(O2)C(=O)C(=O)N2CCCC[C@H]2C(=O)O[C@H]([C@H](C)C[C@@H]2CC[C@@H](O)[C@H](OC)C2)CC(=O)[C@H](C)/C=C(\C)[C@@H](O)[C@@H](OC)C(=O)[C@H](C)C[C@H](C)/C=C/C=C/C=C/1C [Sirolimus (Rapamune), Sirolimus]
ORAL BIOAVAILABILITY [1, 6]: 14-27% | PLASMA PROTEIN BINDING [2, 6]: 92% | HALF-LIFE [3, 6]: 61.3 to 72.3 h

O=C(O[C@H]1CN2CCC1CC2)N1CCc2ccccc2[C@@H]1c1ccccc1 [Solifenacin (Vesicare), Solifenacin]
ORAL BIOAVAILABILITY ([1]; in vivo, po): 90% | PLASMA PROTEIN BINDING ([2]; plasma): 98% | HALF-LIFE ([3]; in vivo): 45 to 68 h

CC(C(=O)O)c1ccc(C(=O)c2cccs2)cc1 (stereo not drawn) [Suprofen]
ORAL BIOAVAILABILITY [1, 8]: 92% | PLASMA PROTEIN BINDING [2, 8]: >99% | HALF-LIFE [3, 8]: 2 to 4 h

CCCCCc1cc(O)c2c(c1)OC(C)(C)[C@@H]1CCC(C)=C[C@@H]21 [THC]
ORAL BIOAVAILABILITY [1, 8]: 10-35% | PLASMA PROTEIN BINDING [2, 8]: 97-99% ^ | HALF-LIFE [3, 8]: 1.6 to 59 h
